“And” between values parts separate entries of the source, which are not always exact repeats. Equal entries are not always repeated. “Also recorded” adds a separate entry of the source.
Tests used:
[1] = First in human study plasma pharmacokinetics; type: in vivo
Description: This example describes a first-in-human study of compound I conducted in healthy volunteers. A total of 54 subjects were administered to study medication. Part 1 of the first in human study administered single ascending doses of 0.15%, 1.5%, 2.5% w/v (1 drop) of compound I in an eye drop.
Part 2 tested multiple ascending doses (MAD) of compound I, administering (i) 1 drop of 0.15%, 1.5%, 2.5%, 4 times daily (every 6 hours) for 7 days or (ii) 1 drop of 2.5%, 8 times daily (every 3 hours) for 7 days (supra-therapeutic dose) as eye drops.
Accumulation of compound I at steady-state was minor (˜1.7-fold) following administration of 0.15%, 1.5% or 2.5% suspension 4 times daily and also minor (˜1.3-fold) following 2.5% 8 times daily for 7 days.

[2] = system: patients undergoing photorefractive keratectomy (PRK) surgery; test: PRK study: Ocular Pain Assessment Survey (OPAS); type: in vivo, human
Description: (§1) The study was a proof of concept, double-masked, randomized, vehicle-controlled study of compound I administered as eye drops in addition to standard of care treatment in patients after PRK surgery. PRK surgery was performed as an outpatient procedure under topical anesthesia with removal of the corneal epithelium to expose the stroma for the laser ablation. Compound I dosing was as single eye drop of 2.5% (25 mg/ml, 0.925 mg/drop), administered four times daily (every six hours) in one eye from immediate post-op (time 0) to last dose at 72 hours.
The OPAS is a validated instrument for quantifying and monitoring corneal and ocular surface pain and quality of life, developed in response to an identified need from a National Eye Institute Workshop in 2010. See Qazi et al., Ophthalmology July 123(7):1458-1468 (2016). The rating scale of the overall pain severity in the OPAS from Qazi et al. rated from 0 (no pain) to 10 (severe pain) or for frequency of symptoms from 0% (never) to 100% (all the time), as per the survey. The patients were asked to fill out the OPAS survey/questionnaire at Day 2, Day 4 (at the end of treatment period with study drug) and Day 8. Statistical analysis of OPAS results was not performed.

[3] = system: patients undergoing photorefractive keratectomy (PRK) surgery; test: PRK study: ocular safety assessments and vital signs; type: in vivo, human
Description: as §1
(§2) Adverse events and serious adverse events included an assessment of both systemic and ocular assessments. Systemic safety assessments included regular assessments of height and weight, vital signs, reporting medication errors including misuse/abuse, pregnancy reporting and early phase safety monitoring. The misuse/abuse, pregnancy reporting and early phase safety monitoring were not assessed for the study. Ocular safety assessments included the following: • Best-corrected visual acuity (BCVA) and uncorrected visual acuity (UCVA): Was measured at each visit using an ETDRS visual acuity chart at 4 meters (13 feet) or 1 meter (for patients that cannot read the 4 meter chart). The BCVA scoring was done based on the number of correctly read letters plus 30. If visual acuity was so poor that the patient could not read any of the largest letters at 1 meter, count fingers and hand movement vision and light perception was tested. • Intraocular Pressure (TOP): IOP measurements were conducted with applanation tonometry or Tonopen. • Dilated fundus exam: The dilated fundus examination included ophthalmoscopic assessments of the vitreous, retina/macula/choroid, and optic nerve. Evaluations for retinal tear/detachment, retinal hemorrhage, vitreous hemorrhage density, vitreous haze grading and abnormal findings were done and scored according to grading criteria. • Ocular hyperemia: Conjunctival redness of the bulbar conjunctiva in each eye at the slit lamp according to the McMonnies redness scale was graded. […] By adjusting the calibrated slit beam width and height, the maximum horizontal (wound width) and vertical dimensions (wound height) of the surgical epithelial wound was estimated. The evaluation was performed until wound closure and report of wound size as 0 horizontal and 0 vertical dimensions. • Slit-lamp biomicroscopy: Ocular signs (eyelids/conjunctiva, cornea, lens, and iris/anterior chamber) was assessed in both eyes by slit lamp biomicroscopy according to the grading criteria. • Blink rate: A blink was defined as a bilateral paroxysmal closure of the eyelids (duration<1 second) in the absence of a provoking external stimulus. Each blink assessment lasted for 2 min (or as close to 2 minutes as possible with minimum time 1 minute) and the obtained blink rate was averaged to calculate blink rate in blinks/min. • Tear production (Schirmer's test without anesthesia): The test was performed without anesthetic in both eyes simultaneously. Tear secretion was measured in millimeters of the length of strip wetted by tears. […] The strip was wetted with 1 drop of sterile saline and flicked to remove excess saline. The patient blinked several times to ensure dispersion of the dye throughout the tear film prior to grading on a scale of 0-3 (0=Normal, No staining; 1=Mild, Superficial stippling micropunctate staining; 2=Moderate, Macropunctate staining with some coalescent areas and 3=Severe, Numerous coalescent macropunctate areas and/or patches) for each of 5 zones (central plus 4 quadrants).

[4] = system: corneal epithelial wound after PRK surgery; test: PRK study: size of epithelial defect by slit lamp exam (wound healing); type: in vivo, human
Description: as §2
Size of epithelial defect by slit lamp exam: In order to assess the rate of wound healing after administration of compound I, the size of the epithelial defect in both compound I and Vehicle treated populations was measured. The elliptical area of epithelial wound size was calculated as follows: […], from the width and height of the epithelial defect measured at the slit lamp. The difference in epithelial wound area between compound I and Vehicle was not noticeably different at any time point except at Day 2 post-PRK surgery (all p-values for the difference in area was >0.35). On Day 2 (24 hours post-operative), the difference in average epithelial defect area between patients treated with compound I vs. Vehicle was 11.23 mm2 (p value=0.034). This difference was not clinically significant in the immediate post-operative period. […]

[5] = across the scheduled time points

CC(C)c1nc2cc(O)ccc2c(=O)n1-c1ccc(C#N)cc1 [Compound I, 4-(7-hydroxy-2-isopropyl-4-oxo-4H-quinazolin-3-yl)-benzonitrile]
Accumulation at steady-state ([1]; 0.15%, 1.5% or 2.5% suspension 4 times daily): ~1.7 fold | Accumulation at steady-state ([1]; 2.5%, 8 times daily for 7 days): ~1.3 fold | Increase in systemic exposure with dose ([1]; dose from 0.15% to 2.5%): less than dose-proportional increase | Absorption into systemic circulation (plasma PK profile) ([1]; single and multiple topical ocular suspension doses 0.15%, 1.5%, 2.5%): rapid absorption | OPAS questions 4, 5, 6: eye pain intensity during the previous 24 hours (most painful, least painful, average) ([2]; Day 2, compared to Vehicle, no statistical analysis): all 3 answers numerically favored compound I | OPAS questions 22-25: how often eye pain associated with redness, burning, sensitivity to light, tearing ([2]; compared to Vehicle, no statistical analysis): all answers favored compound I | OPAS: pain control and quality of life, compound I vs. Vehicle treatment period ([2]; in vivo): better pain control and quality of life | Ocular hyperemia (McMonnies scale) grade 4, compound I vs Vehicle treated eyes ([3]; Day 2 postoperatively (24 hours after PRK surgery)): less grade 4 hyperemia (all quadrants); also recorded: Fewer compound I-treated eyes showed severe conjunctival hyperemia | Ocular hyperemia (McMonnies scale) grade 3, compound I vs Vehicle treated eyes ([3]; Day 3 (48 hours post-operative)): less grade 3 hyperemia | Dilated fundus exam [3, 5]: No abnormal findings | Slit-lamp biomicroscopy: aqueous flare and inflammatory cell grade, iris/anterior chamber, lens [3, 5]: No abnormalities were observed | Changes in BCVA, IOP, slit-lamp biomicroscopy, dilated eye exam, blink rate, tear production, corneal staining, vital signs compared to Vehicle ([3]; after compound I administration): no clinically relevant changes | Vital sign parameters (blood pressures, pulse rate, body temperature) ([3]; all patients during the study): within the normal range | Increase in mean IOP values compared to Baseline ([3]; at the end of study): < 5 mmHg | Corneal staining, compound I versus Vehicle ([3]; baseline, Day 8, EOS visit): No clinical differences were observed | Best-corrected visual acuity (BCVA) and uncorrected visual acuity (UCVA), compound I vs Vehicle-treated eyes ([3]; throughout the study): did not result in any trend or obvious difference | Blink rate, compound I vs Vehicle treatment ([3]; throughout the study): no trend across the scheduled time points or obvious differences | Intraocular pressure, compound I vs Vehicle-treated eyes ([3]; throughout the study): No trend across the scheduled time points or obvious differences | Epithelial defect area, Difference compound I-Vehicle, mean (SD) ([4]; Day 1): 2.98 (27.33) mm^2 | Epithelial defect size, Area, Raw mean (SD) ([4]; Day 1): 220.15 (32.26) mm^2 | Epithelial defect area, Difference compound I-Vehicle, mean (SD) ([4]; Day 2): 11.23 mm^2 and 11.23 (32.30) mm^2 | Epithelial defect size, Area, Raw mean (SD) ([4]; Day 2): 83.02 (32.08) mm^2 | Epithelial defect area, Difference compound I-Vehicle, mean (SD) ([4]; Day 3): 1.02 (8.78) mm^2 | Epithelial defect size, Area, Raw mean (SD) ([4]; Day 3): 6.75 (12.66) mm^2 | Epithelial defect area, Difference compound I-Vehicle, mean (SD) ([4]; Day 4): 0.31 (2.11) mm^2 | Epithelial defect size, Area, Raw mean (SD) ([4]; Day 4): 0.39 (2.04) mm^2 | Epithelial defect area, Difference compound I-Vehicle, mean (SD) ([4]; Day 8): 0.00 (0.00) mm^2 | Epithelial defect size, Area, Raw mean (SD) ([4]; Day 8): 0.00 (0.00) mm^2 | Wound healing compared to Vehicle ([4]; after PRK surgery): no delay in wound healing

— patent US11234982B2, “Methods for treating ocular surface pain” (NOVARTIS AG, priority 2019, dated 2022)
